From patent US20240270801A1, “EPITOPE PEPTIDE OF HUMAN ALPHA-SYNUCLEIN AND PHARMACEUTICAL COMPOSITION INCLUDING SAID PEPTIDE” (Sumitomo Pharma Co., Ltd., priority 2021, published 2024)
Non-standard residues stand in square brackets, D forms with d. No end group written: not given here. Ahx = NCCCCCC(=O)O

Experiments:
aggregated human αSyn = assay: Antibody-inducing ability in mice: ELISA antibody titer of immune serum with respect to aggregated human αSyn; format: in vivo, mouse; conditions: for Antibody titer with respect to aggregated human αSyn (N = 4 − 6, mean ± standard deviation): Example 2, serum 2 weeks after second administration; for Antibody-inducing ability regarding the aggregated human αSyn (in words): Example 2, balb/c mice; for Antibody titer with respect to aggregated human αSyn, relative to control: mice
Method: (§1) Using the various AJ peptide-human αSyn peptide conjugates produced in Example 1, an antibody-inducing ability with respect to human αSyn in mice was evaluated. The various AJ-human αSyn peptide conjugates (250 μg/mouse) or KLH-DMPVDPDN (25 μg/mouse) in physiological saline were intramuscularly administered to balb/c mice (females, 6 weeks old, CLEA Japan, Inc.) twice at a 2-week interval for immunization using aluminum hydroxide (Alum) (InvivoGen, 50 μg/mouse) as an adjuvant. As a negative control, physiological saline (100 μL/mouse) comprising the same amount of aluminum hydroxide was administered twice. Two weeks after the second administration, serum was recovered to evaluate the antibody titer with respect to human αSyn by ELISA.
(§2) ELISA was performed by the following method. 96-well plates were coated with human αSyn (Sigma) at 0.2 μg/well. After washing with PBST (Phosphate Buffered Saline comprising 0.05% Tween) once, blocking was performed with 3% skim milk (FUJIFILM Wako Pure Chemical Corporation). After washing with PBST three times, diluted serum was added to cause a reaction at room temperature for 1 hour. Furthermore, after washing with PBST three times, Goat anti-mouse IgG-HRP (abcam) was added to cause a reaction at room temperature for 1 hour. After washing with PBST three times, SureBlue TMB Microwell Peroxidase Substrate (KPL) was added to cause a reaction at room temperature for 10 minutes while light shielding. An equal volume of a TMB Stop Solution (KPL) was added to stop the reaction, and the absorbance at 450 nm was measured. ELISA with respect to aggregated human αSyn was performed by coating with the aggregated human αSyn (Stress Marq) at 15 ng/well instead of human αSyn in the above-mentioned method.
The antibody-inducing ability of the AJ-human αSyn peptide conjugates (AJ-p54, AJ-p54-KLH, and AJ-DMPVDPDN) produced in Example 1 with respect to human αSyn and aggregated human αSyn in mice was evaluated. Physiological saline or the AJ-human αSyn peptide conjugate (250 μg/mouse) was intramuscularly administered to balb/c mice (females, 6 weeks old, CLEA Japan, Inc.) twice at a 2-week interval using Alum (InvivoGen, 50 μg/mouse) as an adjuvant. Furthermore, KLH-DMPVDPDN (25 μg/mouse) was administered using Alum (InvivoGen, 50 μg/mouse) as an adjuvant. Two weeks after the second administration, serum was recovered to evaluate the antibody titer by ELISA. ELISA was performed by the method described in Example 2.
The antibody-inducing ability of the produced various human αSyn peptide conjugates with respect to human αSyn and aggregated human αSyn in the mice was evaluated by the method described in Example 2 using the antibody titers with respect to human αSyn and aggregated human αSyn of the mouse immune serum. […] In Table 6, the antibody titer of AJ-p242, AJ-p244, AJ-p347, or AJ-p361 is shown with the antibody titer of AJ-p150 as a control being 1 (logarithm). In addition, the antibody titers of AJ-p229, AJ-p237, and AJ-p298 are shown with the antibody titer of AJ-p54 as a control being 1 (logarithm).
The antibody-inducing ability of the AJ-human αSyn peptide conjugates with a modified linker with respect to human αSyn and aggregated human αSyn in the mice was evaluated using the antibody titers with respect to human αSyn and aggregated human αSyn of the mouse immune serum. […] In Table 8, the antibody titers of the AJ-human αSyn peptide conjugates with various modified linkers comprising p54 are shown with the antibody titer of AJ-p54 as a control being 1 (logarithm). In addition, the antibody titers of the AJ-human αSyn peptide conjugates with various modified linkers comprising p150 are shown with the antibody titer of AJ-p150 as a control being 1 (logarithm).

human αSyn = assay: Antibody-inducing ability in mice: ELISA antibody titer of immune serum with respect to human αSyn; format: in vivo, mouse; set-up: key to Antibody titer with respect to human αSyn, relative to control: log titer relative to control conjugate (control = 1); conditions: for Antibody titer with respect to human αSyn (N = 4 − 6, mean ± standard deviation): Example 2, serum 2 weeks after second administration; for Antibody titer compared with control conjugate (in words): Example 9, mice, human αSyn and aggregated human αSyn, control AJ-p150 or AJ-p54
Method: as §1
as §2, with “above-mentioned method. […]” for “above-mentioned method.”
The antibody-inducing ability of the produced various human αSyn peptide conjugates with respect to human αSyn and aggregated human αSyn in the mice was evaluated by the method described in Example 2 using the antibody titers with respect to human αSyn and aggregated human αSyn of the mouse immune serum. […] In Table 6, the antibody titer of AJ-p242, AJ-p244, AJ-p347, or AJ-p361 is shown with the antibody titer of AJ-p150 as a control being 1 (logarithm). In addition, the antibody titers of AJ-p229, AJ-p237, and AJ-p298 are shown with the antibody titer of AJ-p54 as a control being 1 (logarithm). […]

[1] = balb/c mice, i.m. twice at 2-week interval, Alum, AJ conjugates 250 μg/mouse, KLH-DMPVDPDN 25 μg/mouse
[2] = Example 4, balb/c mice, i.m. twice at 2-week interval, Alum, AJ conjugates 250 μg/mouse, KLH-DMPVDPDN 25 μg/mouse
[3] = Example 9, N = 4, titer of AJ-p150 or AJ-p54 as control being 1 (logarithm)
[4] = Example 9, mice, N = 4, titer of AJ-p150 or AJ-p54 as control being 1 (logarithm)
[5] = Example 10, modified linker, titer of AJ-p54 or AJ-p150 as control being 1 (logarithm)
[6] = Example 10, modified linker, mice, titer of AJ-p54 or AJ-p150 as control being 1 (logarithm)

Substance	Antibody titer with respect to aggregated human αSyn (N = 4 − 6, mean ± standard deviation) (aggregated human αSyn; [1])	Antibody titer with respect to human αSyn (N = 4 − 6, mean ± standard deviation) (human αSyn; [1])	Antibody titer with respect to aggregated human αSyn, relative to control (aggregated human αSyn; [5])	Antibody titer with respect to human αSyn, relative to control (human αSyn; [6])	further results
ELKLIFLHRLKRLRKRLKRKXKKDQLGANE (ELKLIFLHRLKRLRKRLKRK[Ahx]KKDQLGANE) [AJ-p142]	576 ± 732	4693 ± 6431	–	–	–
ELKLIFLHRLKRLRKRLKRKXKKDQLGKND (ELKLIFLHRLKRLRKRLKRK[Ahx]KKDQLGKND) [AJ-p233]	555 ± 377	1323 ± 1505	–	–	–
ELKLIFLHRLKRLRKRLKRKXKKDQLGKNE-C-KLH (not fully specified; C-terminal Cys linked to KLH) [AJ-p54-KLH, KLH-modified AJ-human αSyn peptide conjugate, KLH linked via cysteine to the C-terminal]	–	–	–	–	Induction of the antibody to aggregated human αSyn (in words) (aggregated human αSyn; Example 4, balb/c mice): induced; Antibody titer with respect to aggregated human αSyn (mean ± standard deviation) (aggregated human αSyn; [2]): 640 ± 314; Induction of the antibody to human αSyn (in words) (human αSyn; Example 3, mice): induced to the same extent; Antibody titer (N = 4 − 6, mean ± standard deviation) with respect to human αSyn (human αSyn; Example 3, mice, same manner as Example 2): 1621 ± 681; Induction of the antibody to human αSyn (in words) (human αSyn; Example 4, balb/c mice): induced; Antibody titer with respect to human αSyn (mean ± standard deviation) (human αSyn; [2]): 1621 ± 681
ELKLIFLHRLKRLRKRLKRKXKKDQLGKNEE (ELKLIFLHRLKRLRKRLKRK[Ahx]KKDQLGKNEE) [AJ-p167]	1664 ± 1409	2389 ± 1399	–	–	Antibody-inducing ability regarding the aggregated human αSyn (in words) (aggregated human αSyn): particularly strong antibody-inducing ability
ELKLIFLHRLKRLRKRLKRKXKKNQLGKND (ELKLIFLHRLKRLRKRLKRK[Ahx]KKNQLGKND) [AJ-p272]	1536 ± 1724	4096 ± 2896	–	–	Antibody-inducing ability regarding the aggregated human αSyn (in words) (aggregated human αSyn): particularly strong antibody-inducing ability
ELKLIFLHRLKRLRKRLKRKXKKNQLGKNE (ELKLIFLHRLKRLRKRLKRK[Ahx]KKNQLGKNE) [AJ-p237]	–	–	–	–	Antibody titer with respect to aggregated human αSyn, relative to control (aggregated human αSyn; [3]): 0.95; Antibody titer compared with control conjugate (in words) (human αSyn): same level of an antibody titer; Antibody titer with respect to human αSyn, relative to control (human αSyn; [4]): 0.91
ELKLIFLHRLKRLRKRLKRKXKKTQLGKNE (ELKLIFLHRLKRLRKRLKRK[Ahx]KKTQLGKNE) [AJ-p229]	–	–	–	–	Antibody titer with respect to aggregated human αSyn, relative to control (aggregated human αSyn; [3]): 1.02; Antibody titer compared with control conjugate (in words) (human αSyn): same level of an antibody titer; Antibody titer with respect to human αSyn, relative to control (human αSyn; [4]): 0.92
ELKLIFLHRLKRLRKRLKRKXKRDQLGKNE (ELKLIFLHRLKRLRKRLKRK[Ahx]KRDQLGKNE) [AJ-p227]	3072 ± 2748	4267 ± 3200	–	–	Antibody-inducing ability regarding the aggregated human αSyn (in words) (aggregated human αSyn): particularly strong antibody-inducing ability
ELKLIFLHRLKRLRKRLKRKαKEAYEMPSEE [AJ-αK-p150]	–	–	1.05	0.95	–
ELKLIFLHRLKRLRKRLKRKαKKKDQLGKNE [AJ-αK-p54]	–	–	0.92	0.99	–
ELKLIFLHRLKRLRKRLKRKϵKEAYEMPSEE [AJ-εK-p150]	–	–	0.86	0.82	–
ELKLIFLHRLKRLRKRLKRKϵKKKDQLGKNE [AJ-εK-p54]	–	–	0.81	0.70	–
ELKLIFLHRLKRLRKRLKRKϵKKKEAYEMPSEE [AJ-εKKK-p150]	–	–	0.90	0.79	–
ELKLIFLHRLKRLRKRLKRKϵKKKKEAYEMPSEE [AJ-εKKKK-p150]	–	–	1.00	0.97	–
ELKLIFLHRLKRLRKRLKRKϵKKKKKDQLGKNE [AJ-εKKK-p54]	–	–	0.88	0.74	–
ELKLIFLHRLKRLRKRLKRKϵKKKKKKDQLGKNE [AJ-εKKKK-p54]	–	–	0.90	0.77	–
